Experimental data: article PMC7006651, “Effect of 6-Benzoyl-benzothiazol-2-one scaffold on the pharmacological profile of α-alkoxyphenylpropionic acid derived PPAR agonists” (Journal of Enzyme Inhibition and Medicinal Chemistry, 2020)

Experiments:
human PPARγ [1] = biological target: T1, human PPARγ (Homo sapiens, UniProt P37231); assay: Gene reporter (transactivation) assay, Cos-7 cells transfected with pGal4-hPPARγ; type: cell-based; conditions: Cos-7 cells, 24 h; for Emax: COS-7, 24 h, Emax relative to maximum activation with rosiglitazone (1 μM) = 100%, read-out: hPPAR gene reporter γGal4 (%); for EC50: GAL4 chimeric hPPARγ, read-out: hPPAR gene reporter γEC50;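 for all read-outs here: luciferase reporter (pG5-TK) activity normalised to cotransfected β-galactosidase, cells exposed to increasing compound concentrations in DMEM with 0.2% FCS, DMSO vehicle as control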
T1 construct: expressed in transfected cells; host or cells: Cos-7
T1 sequence (P37231 238-503 limits assumed): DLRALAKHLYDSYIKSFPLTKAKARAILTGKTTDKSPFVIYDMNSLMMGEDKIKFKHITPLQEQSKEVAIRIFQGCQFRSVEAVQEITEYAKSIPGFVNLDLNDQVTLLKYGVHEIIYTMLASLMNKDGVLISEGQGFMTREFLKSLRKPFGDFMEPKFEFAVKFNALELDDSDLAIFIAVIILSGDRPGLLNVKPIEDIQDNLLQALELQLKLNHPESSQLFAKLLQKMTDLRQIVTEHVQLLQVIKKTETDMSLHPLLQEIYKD
Description: (§1) Cos-7 cells were transiently transfected with luciferase reporter plasmid (pG5-TK-pGL3) in the presence of pGal4-hPPARα or pGal4-hPPARγ (these vectors express chimeric proteins containing the Gal4 DNA-binding domain fused to the human PPARα or PPARγ ligand binding domain coding sequence) expression vector. […] Cells were transfected in OptiMEM without FCS for 3 h at 37°, using polyethylenimine (PEI), with reporter and expression plasmids, as stated in figure’s legend. The plasmid pBluescript (Stratagene, La Jolla, CA) was used as carrier DNA to set the final amount of DNA to 5.5 µg/dish. The pCMV- ß-galactosidase expression plasmid was cotransfected as a control for transfection efficiency. […] After 16 h, cells were trypsinised and seeded in 96-well plates at the density of 2 × 10^4 cells/well and incubated for 6 h in 10% FCS containing DMEM. Cells were then incubated for 24 h in DMEM containing 0.2% FCS and increasing concentrations of the compound tested or vehicle (DMSO). At the end of the experiment, cells were washed once with ice-cold PBS and the luciferase and the β–galactosidase assays were performed as described previously[20]. Cells were incubated 24 h in the presence of indicated concentrations of compound. Luciferase activity was measured and normalised to internal control β-galactosidase activity. […] EC50 were estimated using Prism software (GraphPad). All transfection experiments were performed at least three times.

ob/ob mice = assay: In vivo ob/ob mice: glycaemia, triglyceridemia, insulinemia, body weight; conditions: oral, 4 days; for ΔBW (body weight variation between day 0 and day 4): expressed in % of rosiglitazone in the same study (= 100%), ob/ob mice; for ΔBW (body weight variation between day 0 and day 4) / Change (%) Gly (glycemia) / Change (%) Ins (insulin) / Change (%) TG (triglycerides): synthesised compounds 8.4 µMkg^−1, references 3 mgkg^−1; for Change (%) Gly (glycemia) / Change (%) Ins (insulin) / Change (%) TG (triglycerides): percent change versus control, ob/ob mice at day 4;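 for all read-outs here: male ob/ob mice aged 10–12 weeks, given the compound once daily by oral gavage as a 1% hydroxyethylcellulose suspension, 8–12 animals per group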
Description: The glucose- and triglyceride-lowering activities of the compounds prepared were then tested using 10–12-week-old male ob/ob mice. […] Mice had access to filtered (0.22 mm) tap water ad libitum and irradiated pelleted laboratory chow (transbreed, Special Diet Services, England) throughout the study. Compounds were prepared as a suspension in 1% hydroxyethylcellulose (HEC) for oral administration (10 mLkg^−1). The mice (n = 8–12 per group) were dosed by gavage daily between 15:00 and 17:00 for 4 days. Randomisation was performed based on glycaemia values. The body weight gain (DBW in grams) of the animals was determined by measuring the difference between body weight at the beginning and end of the study for each mouse. At day 5 between 9:00 and 11:00 the mice were weighed, and blood samples were collected into heparin-containing tubes by retro-orbital puncture (500 mL per mouse). […] Plasma samples were prepared by centrifugation (2000 g for 10 min), and stored at −20 °C. For triglycerides and insulin determination, the percent change in plasma level in the treated group was calculated relative to the mean plasma level in the vehicle-treated group. ANOVA, followed by Dunnett’s comparison test (one-tailed) was used to estimate significant differences between the plasma glycaemia, triglycerides, insulin, and DBW values between the control group and the individual compound-treated groups.

human PPARα = biological target: T2, human PPARα (Homo sapiens, UniProt Q07869); assay: Gene reporter (transactivation) assay, Cos-7 cells transfected with pGal4-hPPARα; type: cell-based; conditions: for Emax: COS-7, 24 h, Emax relative to maximum activation with WY14643 (10 µM) = 100%, read-out: hPPAR gene reporter αGal4 (%); for EC50: GAL4 chimeric hPPARα, 24 h, read-out: hPPAR gene reporter αEC50;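 for all read-outs here: luciferase signal from a Gal4-driven reporter normalised to cotransfected β-galactosidase activity, cells exposed to rising compound concentrations with DMSO vehicle as control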
T2 construct: expressed in transfected cells; host or cells: Cos-7
T2 sequence (Q07869 239-466 limits assumed): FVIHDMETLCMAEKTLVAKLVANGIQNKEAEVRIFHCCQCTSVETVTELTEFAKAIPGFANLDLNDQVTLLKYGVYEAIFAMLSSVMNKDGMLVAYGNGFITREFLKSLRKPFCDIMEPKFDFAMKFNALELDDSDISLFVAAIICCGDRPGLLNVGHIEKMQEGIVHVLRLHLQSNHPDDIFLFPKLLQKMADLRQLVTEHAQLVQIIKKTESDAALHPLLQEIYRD
Description: as §1

human PPARγ [2] = biological target: T3, human PPARγ (Homo sapiens, UniProt P37231); assay: Membrane-bound PPARγ binding assay ([3H]rosiglitazone competition, filtration); conditions: competition with [3H]rosiglitazone (4 nM), 180 min at 4 °C; read-out: Ki (nM), hPPARγ binding affinity
T3 sequence (P37231 235-505 limits assumed): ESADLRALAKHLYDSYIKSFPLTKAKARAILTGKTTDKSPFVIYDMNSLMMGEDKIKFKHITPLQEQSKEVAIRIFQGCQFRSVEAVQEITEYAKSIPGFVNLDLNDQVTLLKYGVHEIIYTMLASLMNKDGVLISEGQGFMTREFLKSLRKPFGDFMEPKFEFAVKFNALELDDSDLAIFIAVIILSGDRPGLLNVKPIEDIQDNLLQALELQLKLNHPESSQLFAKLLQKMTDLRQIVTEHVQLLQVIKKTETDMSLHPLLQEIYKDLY
Description: The membrane-associated PPARγ was used as the biological source as previously described. Binding buffer consisted of 10 mM Tris/HCl, pH 8.2, containing 50 mM KCl and 1 mM dithiothreitol. […] Radioactivity was measured in a TopCount apparatus (Packard).

CaCO2 cells = assay: CaCo2 cell absorption (membrane permeability model); type: in vitro ADME; conditions: percentage of absorption
Description: The in vivo effect of test compounds was determined by measuring glycaemia, triglyceridemia, insulinemia, and body weight using ob/ob mice (Table 3). The ob/ob mice were obese, insulin resistant with hypertriglyceridaemia and hyperglycaemia, and have been used as a rodent model of obesity-induced insulin resistance. […] As a side effect index, body weight was also measured daily, and body weight variation was calculated as a percentage of the difference in body weight between days 4 and 0. […] Benzoyl derivatives 32a, 41a and 42a were not evaluated in vivo with regard to their low absorption values with CaCO2 cells (< 25%), an in vitro model predicting membrane permeability. […] Indeed, incorporation of substituents such as methyl oxime ether and trifluoroethoxy group are benefiting for PPAR activity regulation and so for effective management of dyslipidemia without inducing body weight gain. […] The CF3 group incorporation, beyond keeping a good in vivo efficacy, provided a robust reduction of body weight induced with compound 44a, strengthening the beneficial pharmacological effect of C-H bond replacement with fluorine. Compound 44 b may be considered as a SPPARγM since this full PPARγ agonist retains the insulin-sensitizing and glucose-lowering actions while mitigating or eliminating the undesirable side effects.

Structure (SMILES) | Emax (human PPARγ [1]) [%] | EC50 (human PPARγ [1]) [µM] | Emax (human PPARα) [%] | Ki (human PPARγ [2]) [nM] | melting point [°C] | EC50 (human PPARα) [µM] | absorption with CaCO2 cells (CaCo2 permeability) (CaCO2 cells) [%] | ΔBW (body weight variation between day 0 and day 4) (ob/ob mice) [%] | Change (%) Gly (glycemia) (ob/ob mice) [%] | Change (%) Ins (insulin) (ob/ob mice) [%] | Change (%) TG (triglycerides) (ob/ob mice) [%] | in vivo activity in ob/ob mice (ob/ob mice)
CCOC(Cc1ccc(OCCn2c(=O)sc3cc(/C(=N/O)c4ccccc4)ccc32)cc1)C(=O)O (stereo not drawn) [Compound 39a, 3-{4-[2–(6-[(E)-hydroxyimino-phenyl-methyl]-2-oxo-benzothiazol-3-yl)-ethoxy]-phenyl}-2-ethoxypropionic acid] | 91 | 0.024 | 129 | 2 | 84 to 85 |  |  | −10 | −49 | −34 | −69 | 
CCO[C@@H](Cc1ccc(OCCn2c(=O)sc3cc(/C(=N/OC)c4ccccc4)ccc32)cc1)C(=O)O [Compound 44a, (S)-3-{4-[2–(6-[(E)-methoxyimino-phenyl-methyl]-2-oxo-benzothiazol-3-yl)-ethoxy]-phenyl}-2-ethoxypropionic acid] | 115 | 0.002 | 154 | 0.7 | 151 to 152 | 0.032 |  | 177 | −46 | −81 | −79 | 
CCO[C@@H](Cc1ccc(OCCn2c(=O)sc3cc(C(=O)c4ccccc4)ccc32)cc1)C(=O)O [Compound 41a, (S)-3-{4-[2–(6-benzoyl-2-oxo-benzothiazol-3-yl)-ethoxy]-phenyl}-2-ethoxypropionic acid] | 142 | 0.008 | 166 | 0.5 | 57 to 59 | 0.522 | < 25 |  |  |  |  | 
CCOC(Cc1ccc(OCCn2c(=O)sc3cc(/C(=N/OC)c4ccccc4)ccc32)cc1)C(=O)O (stereo not drawn) [Compound 40a, 3-{4-[2–(6-[(E)-methoxyimino-phenyl-methyl]-2-oxo-benzothiazol-3-yl)-ethoxy]-phenyl}-2-ethoxypropionic acid] | 87 | 0.002 | 159 | 4 | 151 to 152 | 0.129 |  | 188 | −58 | −76 | −83 | 
CCO[C@@H](Cc1ccc(OCCn2c(=O)sc3cc(/C(=N/O)c4ccccc4)ccc32)cc1)C(=O)O [Compound 43a, (S)-3-{4-[2–(6-[(E)-hydroxyimino-phenyl-methyl]-2-oxo-benzothiazol-3-yl)-ethoxy]-phenyl}-2-ethoxypropionic acid] | 123 | 0.016 | 153 | 0.5 | 84 to 85 |  |  | 113 | −55 | −29 | −33 | 
CCOC(Cc1ccc(OCCN2C(=O)CSc3cc(C(=O)c4ccccc4)ccc32)cc1)C(=O)O (stereo not drawn) [Compound 34, 3-{4-[2–(7-benzoyl-3-oxo-benzo[1, 4]thiazin-4-yl)-ethoxy]-phenyl}-2-ethoxypropionic acid] | 97 | 0.037 | 116 | 4 | 58 to 60 | 2.05 |  |  |  |  |  | 
CCOC(Cc1ccc(OCCN2C(=O)COc3ccc(C(=O)c4ccccc4)cc32)cc1)C(=O)O (stereo not drawn) [Compound 35, 3-{4-[2–(6-benzoyl-3-oxo-benzo[1, 4]oxazin-4-yl)-ethoxy]-phenyl}-2-ethoxypropionic acid] | > 100 | 0.002 | 97 | 3 | 47 to 49 |  |  |  |  |  |  | 
CCO[C@H](Cc1ccc(OCCn2c(=O)sc3cc(C(=O)c4ccccc4)ccc32)cc1)C(=O)O [Compound 42a, (R)-3-{4-[2–(6-benzoyl-2-oxo-benzothiazol-3-yl)-ethoxy]-phenyl}-2-ethoxypropionic acid] | 39 | 0.3 | 0 | 70 | 57 to 59 |  | < 25 |  |  |  |  | 

The remaining compounds from weak to strong by EC50 (human PPARγ [1]), led by results:

Emax (human PPARγ [1]) [%] | EC50 (human PPARγ [1]) [µM] | Emax (human PPARα) [%] | Ki (human PPARγ [2]) [nM] | melting point [°C] | EC50 (human PPARα) [µM] | absorption with CaCO2 cells (CaCo2 permeability) (CaCO2 cells) [%] | Structure (SMILES) | ΔBW (body weight variation between day 0 and day 4) (ob/ob mice) [%] | Change (%) Gly (glycemia) (ob/ob mice) [%] | Change (%) Ins (insulin) (ob/ob mice) [%] | Change (%) TG (triglycerides) (ob/ob mice) [%] | in vivo activity in ob/ob mice (ob/ob mice)
66 | 0.799 | 30 | 210 | 84 to 85 |  | 31 | CCO[C@H](Cc1ccc(OCCn2c(=O)sc3cc(/C(=N/O)c4ccccc4)ccc32)cc1)C(=O)O [Compound 45a, (R)-3-{4-[2–(6-[(E)-hydroxyimino-phenyl-methyl]-2-oxo-benzothiazol-3-yl)-ethoxy]-phenyl}-2-ethoxypropionic acid] | 328 | −7 | 51 | 21 | inactive
≤ 70 | 0.219 | ≤ 20 | 220 | 52 to 54 | 10 |  | CCOC(Cc1ccc(OCCN2C(=O)CSc3ccc(C(=O)c4ccccc4)cc32)cc1)C(=O)O (stereo not drawn) [Compound 33, 3-{4-[2–(6-benzoyl-3-oxo-benzo[1, 4]thiazin-4-yl)-ethoxy]-phenyl}-2-ethoxypropionic acid] |  |  |  |  | 
≥ 80 | 0.015 | ≥ 80 | 4 | 57 to 59 | 2.4 | < 25 | CCOC(Cc1ccc(OCCn2c(=O)sc3cc(C(=O)c4ccccc4)ccc32)cc1)C(=O)O (stereo not drawn) [Compound 32a, 3-{4-[2–(6-benzoyl-2-oxo-benzothiazol-3-yl)-ethoxy]-phenyl}-2-ethoxypropionic acid] |  |  |  |  | 
44 | 0.01 | 29 | 165 | 55 to 56 |  |  | O=C(O)C(Cc1ccc(OCCn2c(=O)sc3cc(C(=NO)c4ccccc4)ccc32)cc1)OCC(F)(F)F (mixture of isomers) [Compound 39b, 3-{4-[2–(6-[(Z/E)-hydroxyimino-phenyl-methyl]-2-oxo-benzothiazol-3-yl)-ethoxy]-phenyl}-2–(2,2,2-trifluoro)ethoxypropionic acid] | 75 | −18 | 10 | −30 | 
95 | 0.007 | 56 | 1.3 | 56 to 57 | 0.18 |  | CON=C(c1ccccc1)c1ccc2c(c1)sc(=O)n2CCOc1ccc(CC(OCC(F)(F)F)C(=O)O)cc1 (racemic) [Compound 40b, 3-{4-[2–(6-[(E)-methoxyimino-phenyl-methyl]-2-oxo-benzothiazol-3-yl)-ethoxy]-phenyl}-2–(2,2,2-trifluoro)ethoxypropionic acid] | −70 | −37 | −55 | −54 | 
